One test relates to A. baumannii ATCC 17978. Put plainly: In vitro antibacterial activity assay (MIC, broth dilution). It is filed as cell-based. The settings on record: Acinetobacter baumannii, ATCC17978; Table 2; read-out: G- bacteria MIC A. baumannii ATCC 17978. From the text:
(§1) The method used to indicate the activity of the compounds in this example is to record the minimum inhibitory concentration (MIC) of the compounds against bacteria. The specific experimental method is as follows:
(§2) 1. The bacterial liquid cultured from a single colony was taken, and diluted into autoclaved CAMHB broth in a ratio of 1:1000, and mixed well.
(§3) 2. The prepared drug solution was filtered through a sterile 0.22 µm syringe filter and placed in a sterile EP tube for later use.
(§4) 3. A 96-well plate was taken, and 20 µL of drug solution ([…]) was added to each well in the first column of the 96-well plate. Then, 180 µL of diluted bacterial liquid was added and mixed well (Perform 3 replicate rows for each drug).
(§5) The same process was performed for the hydrochloride drug.
(§6) 4. 100 μL of diluted bacterial liquid was added to each well in the remaining 11 columns of the 96-well plate. Drugs are the same as above.
(§7) 5. Serial dilution: 100 μL of liquid was taken from the first column to the second column, mixed well, then 100 μL of liquid was taken from the second column to the third column, mixed well, and so on, sequentially diluting down to the last column (column 12). After mixing column 12 well, 100 μL of liquid thereof was discarded. The drug concentration in each well was decreased by two-fold serially (the concentration in the first well is 40 μg/mL).
(§8) 6. Blank CAMHB broth without added bacteria liquid was added to 3 blank wells in the 96-well plate, as negative control.
(§9) 7. The diluted bacterial liquid was added to 3 blank wells in the 96-well plate, as positive control.
(§10) 8. Incubated at 37° C. for 16 hours.
(§11) 9. Results reading: the minimum inhibitory concentration is the minimum drug concentration at which no bacterial growth is visible to the naked eye and without turbidity.
For orientation: In broth dilution the organism is exposed to a series of concentrations in liquid medium.

The subject of a further test is E. coli ATCC 25922. Described as above. It counts as cell-based. The following applies: Escherichia coli, ATCC25922; Table 2; read-out: G- bacteria MIC E. coli ATCC 25922.
Source text: as §1, §2, §3, §4, §5, §6, §7, §8, §9, §10, §11

The test system of a further test is E. feacium ATCC 700221. The test is described as above. It is filed as cell-based. The following applies: Table 1; read-out: G+ bacteria MIC E. feacium ATCC 700221.
Source text: as §1, §2, §3, §4, §5, §6, §7, §8, §9, §10, §11

The test system of another test is P. aeruginosa ATCC 27853. The test is described as above. It is filed as cell-based. The following applies: Pseudomonas aeruginosa, ATCC27853; Table 2; read-out: G- bacteria MIC P. aeruginosa ATCC 27853.
Source text: as §1, §2, §3, §4, §5, §6, §7, §8, §9, §10, §11

The next test relates to S. aureus ATCC 43300. The test is described as above. It is filed as cell-based. The following applies: Staphylococcus aureus, ATCC43300; Table 1; read-out: G+ bacteria MIC S. aureus ATCC 43300.
Source text: as §1, §2, §3, §4, §5, §6, §7, §8, §9, §10, §11

For test [1], the system named is Staphylococcus aureus ATCC43300. Description: Resistance test of bacteria against compounds (serial induction, 21 days). It counts as cell-based. The following applies: start of resistance test, S. aureus ATCC43300. How it is done:
This example provides a resistance test of bacteria against compounds, and the specific experimental method is as follows.
1. […] It was ensured that among the 6 final concentrations of the drug diluted into the wells, some were higher than the original MIC of the bacteria and some were lower than the original MIC of the bacteria.
2. Preparation of bacterial liquid: 10 mL of culture medium was taken and added to a sterilized plate using a pipette, then 100 µL of the above-mentioned passaged bacterial liquid was added, and mixed well for later use.
3. The above-mentioned diluted bacterial liquid was taken and added to a 96-well plate using a pipette, 180 μL per well, 3 wells per group, 6 groups in total. 20 μL of drug solution was added to each well (note: it is necessary to replace the pipette tip each time the drug is added), so that the final drug concentrations were […], respectively. The well with 200 μL of diluted bacterial liquid was used as the positive control well, and the well with 200 μL of culture medium was used as the negative control well.
The test object was Staphylococcus aureus (S. aureus).

Test [2] concerns human acute monocytic leukemia cell THP-1. Description: In vitro anticancer activity test (MTT cell proliferation). It counts as cell-based. The procedure: (§12) The anticancer activity of the compounds was tested using an in vitro cancer cell tests. The specific test method is as follows:
(§13) 1. Cell recovery and culture method: the cryovial was taken out from the liquid nitrogen container firstly, soaked directly in 37° C. warm water, and shaked from time to time to let it thaw as soon as possible. Then, the cryovial was transferred to a clean bench, and the lid was open. The cell suspension was taken into a centrifuge tube using a rubber-tipped dropper and more than 10 times the culture medium was added, mixed well, and centrifuged at 50 g for 5 minutes. Then, the supernatant was discarded, complete culture medium containing 10% fetal bovine serum was added to resuspend the cells, the cells was counted, the cell density was adjusted, and then inoculated into a culture bottle. The culture bottle was placed in a cell culture incubator at 5% CO2 and 37° C. The complete culture medium was replaced once the next day and the culture was continued.
(§14) 2. Cell passaging method: adherent cells in the logarithmic growth phase were placed in a clean bench, the original culture medium was discarded, and washed three times with 1×PBS. An appropriate amount of 0.25% trypsin digestion solution was added to moisten the cells, and then the trypsin solution was aspirated. The cells were placed in a cell culture incubator at 5% CO2 and 37° C. for digestion for a suitable time, and observed under a microscope. When 90% of the cells become round, the cells were moved immediately to the clean bench and complete culture medium was added to terminate digestion. Then, the cells were dislodged by pipetting up and down with a rubber-tipped dropper to single cells. The cells were counted, and the cell density was adjusted. The cells were inoculated into a suitable culture bottle or dish, added enough complete culture medium, and placed in a cell culture incubator at 5% CO2 and 37° C. for static culture.
(§15) For suspension cells in the logarithmic phase, the original culture medium was directly centrifuged at 50 g for 5 minutes, the supernatant was discarded, and the cells were washed once with PBS and centrifuged. After discarding the supernatant, the complete culture medium was added and the cells were dispersed using a rubber-tipped dropper. The cells are counted, and the cell density was adjusted. The cells were inoculated into appropriate culture bottles or culture dishes, and sufficient complete culture medium was added, and the cells were cultured in a cell culture incubator at 5% CO2 and 37° C.
(§16) 3. Cell proliferation assay: cells in good state in logarithmic phase were taken and appropriate amount of the cells was inoculated into 96-well plates according to the cell passage treatment method, with each well containing 180 μL complete medium. After the cells growth was recovered and the number of cells in each well is 5000±500, a drug was added for treatment.
(§17) After drug treatment during the experimental time, MTT solution with a final concentration of 0.5 mg/mL was added to each well, and placed in a cell culture incubator at 5% CO2 and 37° C. to allow a fully reaction of MTT with cells. After 4 hours, the solution in the 96-well plate was discarded, 100 µL of DMSO was added, and shaked to dissolve the formazan precipitated at the bottom of the plate, and the absorbance value of samples was detected at a wavelength of 570 nm using a microplate reader. Calculation method of cell viability rate: […]

In test [3] the test system is human acute myeloid leukemia cell MOLM-13. The test is described as above. It is filed as cell-based. The procedure:
as §12, §13, §14, §15, §16, §17

In test [4] the test system is human liver cancer cell BLE-7402. The description is as above. It is filed as cell-based. How it is done:
as §12, §13, §14, §15, §16, §17

In test [5] the test system is human renal cancer cell OS-RC-2. Described as above. It is filed as cell-based. The procedure: as §12, §13, §14, §15, §16, §17
In test [6] the test system is human bladder transitional cell carcinoma cell T24. The description is as above. It is filed as cell-based. The settings on record: T-24. The procedure: as §12, §13, §14, §15
In test [7] the test system is human epidermal carcinoma cell A431. The description is as above. The following applies: A-431. It counts as cell-based. How it is done: as §12, §13, §14, §15
In test [8] the test system is Staphylococcus aureus ATCC43300. Description: Systemic blood infection animal model. It counts as in vivo, mice. The settings on record: for number of colonies of liver and kidney: 3 times a day, 7 days. The procedure: (2) Sterile phosphate buffered saline (PBS) was used to prepare a 1×10^7 CFU/mL Staphylococcus aureus ATCC43300 bacterial suspension for later use; the drug dosage required for mice was calculated for each group, and solutions of Example 34 and solvent for gavage (400 or 200 μL of Tween 80 was mixed with Example 34, grinded with an agate mortar until it became transparent, and then 0.5% sodium carboxymethyl cellulose solution was added to reach the required concentration and volume of the test drug) were prepared for later use.
(3) Except for the blank group, 100 μL of the bacterial suspension prepared in step 2 was injected into the tail vein of each mouse.
(4) 2 hours after the challenge, the drugs prepared in step 2 were administered by oral gavage according to the groups, 3 times a day, 200 uL each time, with an interval of 8 hours, for a total of 7 days. Mice were administered by oral gavage with the drug solvent for the model group and the blank group.
(5) 8 h after the last administration, mice were euthanized by cervical dislocation, disinfected with 75% alcohol, and then necropsied under sterile conditions. The kidneys and livers were harvested, observed and photographed, and the weight was recorded.
(6) The kidneys and livers were placed in a sterile glass grinder and sterile PBS in a volume ten times the weight of the organs was added and grinded. The grinding solutions were taken out, 10-fold serially diluted, smeared to a TSA solid culture medium, and incubated at 37° C. for 16 hours, then the colonies were counted. The number of colonies of the organs was calculated to evaluate the therapeutic effect.

For test [9], the system named is human Burkitt's lymphoma cell Raji. Description: In vitro anticancer activity test (MTT cell proliferation). It is filed as cell-based. The procedure:
as §12, §13, §14, §15, §16, §17

In brackets after ≈: the same amount, converted by molar mass.

For orientation: MIC means the least concentration at which growth counts as inhibited. In the case of `O=C(O)c1cn(C2CC2)c2nc(-c3ccc(S(=O)(=O)NCCO)cc3)c(F)cc2c1=O` [Example 18, 1-cyclopropyl-6-fluoro-7-(4-(N-(2-hydroxyethyl)aminosulfonyl)phenyl)-4-oxo-1,4-dihydro-1,8-naphthyridine-3-carboxylic acid], the MIC is 0.1 to 1 µg/mL (≈ 0.223 to 2.23 µM) in the test on A. baumannii ATCC 17978; at most 0.1 µg/mL in the test with E. coli ATCC 25922; 1 to 8 µg/mL (≈ 2.23 to 17.9 µM) in the test with E. feacium ATCC 700221; 0.1 to 1 µg/mL (≈ 0.223 to 2.23 µM) in the test on P. aeruginosa ATCC 27853; at most 0.1 µg/mL in the test with S. aureus ATCC 43300.

As a reminder, the IC50 is the concentration needed to halve the response being measured. With `O=C(O)c1cn(C2CC2)c2c(Cl)c(-c3ccc(S(=O)(=O)NCCCC(F)(F)F)nc3)c(F)cc2c1=O` [Example 34, 8-chloro-1-cyclopropyl-6-fluoro-4-oxo-7-(6-(N-(4,4,4-trifluorobutyl)sulfamoyl)pyridin-3-yl)-1,4-dihydroquinolin-3-carboxylic acid], in [1], the “initial MIC compared with marketed drugs” value is “superior to the marketed drugs ciprofloxacin and vancomycin”. For the same compound, the IC50 in [2], in test [3], in [4], in [5], in test [6] and in test [7] was 1 to 10 µM each time. Besides, the entries for the “number of colonies of liver and kidney” value in [8] (1 mg/kg oral gavage) and in test [8] (4 mg/kg oral gavage) were “significant statistical difference from the control group” and “good antibacterial effect”, respectively. The “antibacterial effect in the liver and kidney (number of colonies of organs)” value in test [8] (compared with the positive drug ciprofloxacin) is “very significant antibacterial effect”.

In the case of `Cc1c(-c2cnc(N)nc2)c(F)cc2c(=O)c(C(=O)O)cn(C3CC3)c12` [compound 1, reference compound], the concentration for half-maximal inhibition (IC50) in test [9] was at least 40 µM.
